# Test results: US10352947B2, “Use of markers in the identification of cardiotoxic agents and in the diagnosis and monitoring of cardiomyopathy and cardiovascular disease” (Berg LLC, priority 2012, dated 2019)
# Like-named read-outs stand apart in the source and are kept apart here.
# Key:
# CCDC47 = tested on: CCDC47
# Description: Human serum samples from individuals with type 2 diabetes mellitus (T2D) and/or cardiomyopathy treated with various drugs and appropriate control subjects (n=120 total) were acquired from a commercial source. The characteristics of the group was as follows:
# The level of the cardiomyopathy protein biomarker CCDC47 were measured in the serum samples from the T2DM individuals and drug treated T2DM individuals using commercially available ELISA kits. The assays were performed using the manufactures' instructions. An ROC analysis was performed to determine if serum CCDC47 levels correlated with cardiomyopathy.
# NucB1 = experiment: Serum NucB1 ELISA in normal, T2DM, Rosiglitazone-treated T2DM and cardiomyopathy individuals; type: in vivo, human; conditions: some Rosiglitazone-treated T2DM individuals vs. the other Rosiglitazone-treated T2DM individuals; FIG. 8
# Description: (§1) The level of protein expression of cardiotoxicity biomarkers EDIL3 and NucB1 in the serum samples from these four groups of individuals were measured by using commercially available ELISA kits.
# (§2) The expression levels of the cardiotoxicity biomarkers EDIL3 and NucB1 were determined and the average expression of each biomarker for each group of individuals was calculated.
# EDIL3 = experiment: Serum EDIL3 ELISA in normal, T2DM, Rosiglitazone-treated T2DM and cardiomyopathy individuals; type: in vivo, human; conditions: some Rosiglitazone-treated T2DM individuals vs. the other Rosiglitazone-treated T2DM individuals; FIG. 7
# Description: as §1, §2
# serum lipids = experiment: Serum lipidomics of patients (diabetes / rosiglitazone / cardiomyopathy groups); type: in vivo, human
# Description: The platform methods provided herein enables integration of multi-omic signatures from human drug induced organ toxicity models. A substantive example of the platforms prowess that is under consideration here is a human drug induced cardio toxicity scenario. Human drug induced cardio toxicity models that comprises of i) Human cardiomyocyte based in vitro models of cardiotoxicity and ii) Serum samples from patients on a drug that induces cardiotoxicity. In vitro models include human cardio myocyte pretreated with fatty acids (linoleic, oleic acids and L-Carnitine) followed by treatment with a drug. The drug under consideration here is a thiazolidinedione. Cell based assays specifically measuring functional end points namely mitochondrial ATP, ROS, cell viability and mitochondrial bioenergetics were performed on in vitro models.
# Proteomics was performed using the LTQ Orbitrap from Thermo Scientific as mentioned in earlier reports. Shortgun Lipidomics was performed using the TSQ vantage EMR triple Quad mass spec from thermo.
# Standard procedures for merging, normalization and imputation were followed. Quality control plots for these steps are included in the accompanying folder.
# Quantification of lipids that are common to serum lipid networks and pellet lipid networks. […] Lipid levels are expressed as a percent of normal lipid levels in FIG. 10B. […]
SMILES,"level of CCDC47 in serum (CCDC47; human, in vivo)",NucB1 expression level in serum (NucB1),"level of CCDC47 in serum (CCDC47; subjects treated with the drug vs. subjects treated with the other two drugs (rosiglitazone, metformin, atorvastatin), ELISA, FIG. 13)",EDIL3 expression level in serum (EDIL3),"serum level of lipid PE D18:0-20:3/D18:1-20:2/D16:0-22:3 (serum lipids; diabetic subjects on rosiglitazone with clinical diagnosis of cardiomyopathy vs. diabetic alone and diabetics on rosiglitazone without cardiomyopathy, FIG. 10)","serum ethanolamine glycerophospholipid species P16:0-20:4, D18:0-18:2, P16:0-22:6, P18:0-20:4 and D18:0-20:4 (serum lipids; diabetic vs. diabetic rosiglitazone no cardiomyopathy vs. diabetic rosiglitazone cardiomyopathy)"
CC(C)c1c(C(=O)Nc2ccccc2)c(-c2ccccc2)c(-c2ccc(F)cc2)n1CC[C@@H](O)C[C@@H](O)CC(=O)O [atorvastatin],No significant difference,,,,,
CN(C)C(=N)N=C(N)N [metformin],No significant difference,,,,,
CN(CCOc1ccc(CC2SC(=O)NC2=O)cc1)c1ccccn1 (stereo not shown) [rosiglitazone],,decreased,significant increase,decreased,significantly reduced,stratified along with the treatment with rosiglitazone
